Experimental data taken from EP1889615A2, “Formulations for oral administration with a health promoting effect on the osteoarticular and muscleskeleton apparatus” (ROTTAPHARM S.P.A., priority 2006, dated 2008).
Values after ≈ are worked out from the molar mass of the structure shown.

Tests used:
[1] = tested on: zymosan-induced rat paw oedema; experiment: Rat: anti-inflammatory activity on zymosan-induced paw oedema; assay type: in vivo; settings: for % Diff. vs. control / Diff. vs. control: oedema; for % Diff. vs. control / Diff. vs. control / Oedema: oral; for Oedema: area under curve 0-24 h
Description: The anti-inflammatory activities of the test products have been assessed according to Di Rosa et al. [1971] on rat paw oedema induced by a subplantar injection of 4 mg di zymosan in 0.1 ml of isotonic saline. Paw volume has been measured pletismographically at 0, 1, 2, 4, 6 and 24 hours following the injection of zymosan, and expressed in ml of difference, with respect to the baseline volume. The test products, suspended in 5 ml/kg of 5% methylcellulose, have been administered with a gastric probe 30 minutes prior to the injection of zymosan. Celecoxib, a known COX-2 inhibitor, widely used clinically, and administered orally at a dose of 10 mg/kg, has been used as a reference standard. In order to express the treatment effects numerically, the areas under the curves of paw volume increase from 0 to 24 hours have been measured, thus giving the measurement of paw oedema in mlx24 hours.

[2] = tested on: zymosan-induced rat paw hyperalgesia; experiment: Rat: analgesic activity (Randall and Selitto) on zymosan-induced paw hyperalgesia; assay type: in vivo; settings: for % Diff. vs. control: analgesia; for % Diff. vs. control / Diff. vs. control / Analgesia: oral; for Diff. vs. control: difference of the Analgesia Δgx24h values; for Analgesia: area under analgesimetric curve 0-24 h
Description: The analgesic activities of the test products have been evaluated using the technique of Randall and Selitto [1957] on hyperalgesia induced in rat paw by a subplantar injection of 4 mg di zymosan in 0.1 ml of isotonic saline. The mechanical nociceptive threshold has been determined using an analgesimeter (Ugo Basile, Varese, Italy) at 0, 1, 2, 4, 6 and 24 hours following the injection of zymosan. The analgesimeter measures the weight (in grams) applied to the paw which causes the reflex retraction of the paw itself. The nociceptive threshold has been expressed as the difference (in grams) in nociceptive threshold at time 0. The test products have been administered orally 30 minutes prior to the injection of zymosan. Celecoxib, a known COX-2 inhibitor, widely used clinically as an analgesic-anti-inflammatory, and administered orally at a dose of 10 mg/kg, has been used as a reference standard. In order to express the treatment effects numerically, the areas under the curves of the analgesimetric weight increase on the inflamed paw have been measured from 0 to 24 hours, thus giving the measurement in g x 24 hours of the area under the analgesimetric curve.

[3] = tested on: Mycobacterium tuberculosis; settings: cited from earlier work
[4] = tested on: methicillin and penicillin-resistant strains of Staphylococcus aureus; settings: cited from earlier work
[5] = tested on: IL-1; experiment: Human blood: LPS stimulated production (expression) of IL-1; assay type: cell-based
Description: (§1) 200 µl samples have been stimulated with 1 µg/ml of LPS for 24 hours at 37°C [Hartel et al. 2004], in the presence of the test products. The cytokines released into the plasma have been analysed using a multiple system for cytokines (Bio-Plex, Bio-Rad Laboratories, Milan, Italy) allowing the simultaneous determination of IL-1, TNFα and IL-10.

[6] = tested on: TNFα; experiment: Human blood: LPS stimulated production (expression) of TNFα; assay type: cell-based
Description: as §1

[7] = tested on: IL-10; experiment: Human blood: LPS stimulated production (expression) of IL-10; assay type: cell-based
Description: as §1, with “Venous blood has been collected from healthy volunteers and treated with 0.38% Na citrate in order to prevent coagulation. 200 µl” for “200 µl”

[8] = tested on: TXB2; experiment: Human blood: coagulation-induced thromboxane (TXB2) production, marker of platelet COX-1 activity; assay type: cell-based; settings: for %Diff. vs control: TXB2
Description: The test products have been added to samples of human blood, collected from healthy volunteers, and then said samples allowed to coagulate by leaving to stand for 1 hour at 37°C. The thromboxane (TXB2) in the serum, a marker of platelet COX-1 activity (Panara et al. 1999], has been determined using a specific RIA method.

[9] = tested on: PGE2; experiment: Human blood: production of PGE2 stimulated by 100 µg/ml LPS, marker of monocyte COX-2 activity; assay type: cell-based
Description: Human blood has been collected from health volunteers and made uncoagulable with 0.38% Na citrate. The test products have been added to 200 µl samples and then said samples stimulated with 100 µg/ml of LPS for 24 hours at 37°C. The PGE2 in the plasma, a marker of monocyte COX-2 activity [Panara et al. 1999], has been determined using a specific RIA method.

[10] = tested on: PGE2; experiment: Rabbit chondrocytes: IL-1β-stimulated production of PGE2 (a COX-2 marker); assay type: cell-based, New Zealand white rabbits; settings: for %Diff. vs control: PGE2, control = IL-1β
Description: Joint cartilage chondrocytes, obtained from New Zealand white rabbits, have been cultured using the technique described by Berenbaum [1994]. […] The test products have been added 20 minutes prior to stimulation. On completion of stimulation, the supernatant liquid has been collected and stored at -80°C until analysis. PGE2 in the culture medium has been measured using a radio-immunological method. The production of PGE2 in this model is a marker of the activity of the cyclooxygenases induced (COX-2) in cartilage from the proinflammatory stimulus represented by IL-1β.

[11] = tested on: tibial joint cartilage explants; experiment: Rabbit cartilage explants: protection against IL-1β-induced cartilage degradation (GAG release); settings: for %Diff. vs baseline: GAG release, protection positive
Description: The explants (2 x 2 mm) have been transferred to plates with wells and equilibrated for 48 hours at 37°C with high glucose DMEM plus 10% FCS and 50 µg/ml gentamycin. Explants have then been stimulated for 48 hours with 1 ng/ml IL-1β in aphenolic DMEM, 1 g/l glucose, 50 µg/ml gentamycin and 1% BSA. IL-1β elicits strong activation of the enzymes which depolymerise the proteoglycan aggregates of the cartilage matrix, resulting in its degradation, with the release of the breakdown products, mainly represented by the various glycosaminoglycans (GAG) making up the proteoglycan aggregates, into the culture liquid. […] In order to assess the effects of the test products on IL-1β-induced cartilage degradation, they have been added to the cartilage explants 20 minutes prior to stimulation with IL-1β. Cartilage degradation has been assessed by expressing the GAG released into the culture liquid as a percentage of the total GAG measured following complete digestion of the cartilage explants using papain.

[12] = 10 mg/kg (Man, ASS as mangostin; ASS 10 = Man 10 + CGS 133)
[13] = 30 µM (Man, ASS as mangostin; ASS 30 = Man 30 + CGS 300)
[14] = 10 µM (Man, ASS as mangostin; ASS 10 = Man 10 + CGS 100)
[15] = 1 µM (Man, ASS as mangostin; ASS 1 = Man 1 + CGS 10)
[16] = oral doses of 40, 133 and 400 mg/kg

In the case of `Cc1ccc(-c2cc(C(F)(F)F)nn2-c2ccc(S(N)(=O)=O)cc2)cc1` [CLX, Celecoxib], the “% Diff. vs. control” value [1, 12] is reported as -30%, the Diff. vs. control [1, 12] is reported as -4.7 mlx24 hours and the Oedema [1, 12] is reported as 11.8 Δmlx24h. For the same molecule, the “% Diff. vs. control” value [2, 12] was -46%, the Diff. vs. control [2, 12] was -497 and the Analgesia [2, 12] was 574 Δgx24h.
For `COc1cc2oc3cc(O)c(OC)c(CC=C(C)C)c3c(=O)c2c(O)c1CC=C(C)C` [β-mangostin], the MIC [3] is given as 6.25 µg/mL (≈ 14.7 µM) and the MIC [4] is given as 1.6 µg/mL (≈ 3.77 µM).
In the case of `N[C@H]1C(O)O[C@H](CO)[C@@H](O)[C@@H]1O.N[C@H]1C(O)O[C@H](CO)[C@@H](O)[C@@H]1O.O=S(=O)(O)O.[Cl-].[Cl-].[Na+].[Na+]` (stereo partly shown) [CGS, Crystalline Glucosamine Sulphate], the IL-1 [5, 13] is reported as 4.65 ng/mL, the IL-1 ([5]; 100 µM) is reported as 4.72 ng/mL and the IL-1 ([5]; 300 µM) is reported as 4.69 ng/mL. For the same molecule, the “%Diff. vs control” value ([5]; IL-1, 30 µM (Man, ASS as mangostin; ASS 30 = Man 30 + CGS 300)) was 2.1%, the “%Diff. vs control” value ([5]; IL-1, 100 µM) was 3.6% and the “%Diff. vs control” value ([5]; IL-1, 300 µM) was 3.1%. For the same molecule, the inhibitory activity ([5]; IL-1, up to a concentration of 300 µM) was “no appreciable inhibitory activity”, the TNFα [6, 13] was 14.70 ng/mL and the TNFα ([6]; 100 µM) was 13.80 ng/mL. For the same molecule, the TNFα ([6]; 300 µM) was 12.70 ng/mL, the “%Diff. vs control” value ([6]; TNFα, 30 µM (Man, ASS as mangostin; ASS 30 = Man 30 + CGS 300)) was -7.9% and the “%Diff. vs control” value ([6]; TNFα, 100 µM) was -13.5%. The “%Diff. vs control” value ([6]; TNFα, 300 µM) was -20.4%, the IC50 ([6]; TNFα, Man/Eman and ASS as mangostin concentration) was greater than 300000 nM and the inhibitory activity ([6]; TNFα, even at concentrations of 300 µM) was “weakly inhibitory”. The IL-10 [7, 13] was 0.25 ng/mL, the IL-10 ([7]; 100 µM) was 0.26 ng/mL and the IL-10 ([7]; 300 µM) was 0.27 ng/mL. For the same molecule, the “%Diff. vs control” value ([7]; IL-10 (increase positive), 30 µM (Man, ASS as mangostin; ASS 30 = Man 30 + CGS 300)) was -3.5%, the “%Diff. vs control” value ([7]; IL-10, 100 µM) was 1.6% and the “%Diff. vs control” value ([7]; IL-10, 300 µM) was 6.3%. For the same molecule, the “stimulatory or inhibitory activity” value ([7]; IL-10, concentrations tested 30, 100 and 300 µM) was “no significant stimulatory or inhibitory activity”, the TXB2 [8, 14] was 124 ng/mL and the TXB2 ([8]; 30 µM) was 118 ng/mL. For the same molecule, the TXB2 ([8]; 100 µM) was 125 ng/mL, the “effect on the release of TXB2” value ([8]; Man 1, 3, 10, CGS 10, 30, 100 µM, Ass 1, 3, 10) was “no significant stimulatory or inhibitory activity” and the “%Diff. vs control” value [8, 14] was 3.3%. For the same molecule, the “%Diff. vs control” value ([8]; 30 µM) was -1.7%, the “%Diff. vs control” value ([8]; 100 µM) was 4.2% and the PGE2 [9, 14] was 22.7 ng/mL. The PGE2 ([9]; 30 µM (ASS as mangostin; ASS 30 = Man 30 + CGS 300)) was 24.3 ng/mL, the PGE2 ([9]; 100 µM) was 23.5 ng/mL and the “%Diff. vs control” value ([9]; PGE2, 10 µM (Man, ASS as mangostin; ASS 10 = Man 10 + CGS 100)) was -7.3%. The “%Diff. vs control” value ([9]; PGE2, 30 µM (ASS as mangostin; ASS 30 = Man 30 + CGS 300)) was -0.8%, the “%Diff. vs control” value ([9]; PGE2, 100 µM) was -4.1% and the “stimulatory or inhibitory activity” value ([9]; PGE2, concentrations of 10, 30 or 100 µM) was “no significant stimulatory or inhibitory activity”. The PGE2 [10, 15] was 200 ng/mL, the PGE2 ([10]; 3 µM (Man as mangostin)) was 180 ng/mL and the PGE2 ([10]; 10 µM) was 210 ng/mL. The “%Diff. vs control” value [10, 15] was 6.4%, the “%Diff. vs control” value ([10]; 3 µM (Man as mangostin)) was -4.3% and the “%Diff. vs control” value ([10]; 10 µM) was -11.7%. For the same molecule, the “inhibitory or stimulatory activity” value ([10]; PGE2, concentrations of 1, 3 or 10 µM) was “no significant inhibitory or stimulatory activity”, the “% Diff. vs. control” value ([1]; 40 mg/kg) was -1% and the Diff. vs. control ([1]; 40 mg/kg) was -0.1 mlx24 hours. The “% Diff. vs. control” value ([1]; 133 mg/kg) was -2%, the Diff. vs. control ([1]; 133 mg/kg) was -0.3 mlx24 hours and the “% Diff. vs. control” value ([1]; 400 mg/kg) was -4%. The Diff. vs. control ([1]; 400 mg/kg) was -0.6 mlx24 hours, the anti-inflammatory activity [1, 16] was “no significant anti-inflammatory activity” and the Oedema ([1]; 40 mg/kg) was 15.6 Δmlx24h. The Oedema ([1]; 133 mg/kg) was 15.4 Δmlx24h, the Oedema ([1]; 400 mg/kg) was 15.2 Δmlx24h and the “% Diff. vs. control” value ([2]; 40 mg/kg) was 1%. The “% Diff. vs. control” value ([2]; 133 mg/kg) was -6%, the “% Diff. vs. control” value ([2]; 400 mg/kg) was -4% and the Diff. vs. control ([2]; 40 mg/kg) was 7. The Diff. vs. control ([2]; 133 mg/kg) was -59, the Diff. vs. control ([2]; 400 mg/kg) was -46 and the analgesic activity [2, 16] was “no significant analgesic activity”. The Analgesia ([2]; 40 mg/kg) was 1079 Δgx24h, the Analgesia ([2]; 133 mg/kg) was 1012 Δgx24h and the Analgesia ([2]; 400 mg/kg) was 1026 Δgx24h. For the same molecule, the “protection against IL-1β-induced cartilage degradation” value (from here on “protection”) ([11]; 1 µM) was 41%, the “%GAG released” value [11, 15] was 41% and the “%GAG released” value ([11]; 3 µM) was 25%. For the same molecule, the “%GAG released” value ([11]; 10 µM) was 16%, the “protection” value ([11]; 3 mM CGS) was 64% and the “protection” value ([11]; 10 mM CGS) was 77%. For the same molecule, the “%Diff. vs baseline” value [11, 15] was 40.6%, the “%Diff. vs baseline” value ([11]; 3 µM) was 63.8% and the “%Diff. vs baseline” value ([11]; 10 µM) was 76.8%. For the same molecule, the EC50 ([11]; read-out: PC50, 50% protective concentration, ASS with reference to CGS) was 2300 nM.
For `C[C@@H]1C[C@@H]([C@H](O)CC2CC(=O)NC(=O)C2)C(=O)[C@@H](C)C1` [CHX, Cycloheximide], the “%GAG released” value ([11]; CHX 2.5 µg/ml) was 12% and the “%Diff. vs baseline” value ([11]; CHX 2.5 µg/ml) was 82.6%.
For `COc1c(O)cc2oc3cc(O)c(CC=C(C)C)c(O)c3c(=O)c2c1CC=C(C)C` [α-mangostin], the MIC [3] is listed as 6.25 µg/mL (≈ 15.2 µM) and the MIC [4] is listed as 1.6 µg/mL (≈ 3.9 µM).
